Laboratory results: patent publication US5110797A, “Peptide compound and a pharmaceutically acceptable salt thereof” (Nippon Zoki Pharmaceutical Co., Ltd., priority 1985, dated 1992)

Experiments:
ddY-strain male mice = test: Analgesic effect, modified Randall-Selitto's test (Tale pressure method); assay type: in vivo; conditions: 0.1 μmole/mouse, intracisternal injection, test at 5 min after injection, groups of 10 mice; control 1.17 ± 0.12
Protocol: Groups of 10 ddY-strain male mice weighing 24-30 g were used for measurement of analgesic effect of the peptide compounds of the present invention by modified Randall-Selitto's test (Tale pressure method). Analgesic test was performed at 5 min after intracisternal injection of the test drugs.

[1] = system: Wistar-strain rats (hippocampus EEG); test: Neurotropic effect: EEG activity after injection into the hippocampus of freely moving rats; assay type: in vivo, rat; conditions: 100 ng to 10 μg in 2 μl saline injected unilaterally into the hippocampus
Protocol: (I) A neurotropic effect of the peptide compounds of the present invention was examined by the method of Maria-S. Oitzl and J. P. Huston [Brain research, 308, 33-42 (1984)].
Wistar-strain rats were implanted with a set of electrodes for recording EEG under anesthesia with pentobarbital (50 mg/kg, i.p.). The electrodes were bilaterally implanted into the hippocampus (Bregma -2.7 mm, Lateral 2.5 mm, Depth 2.8 mm) by reference to THE RAT BRAIN IN STEREOTAXIC COODINATES (George Paxion & Charles Watson, Academic press). Chemitorode, a injection guide cannula uniting with electrode for recording, was implanted in the temporoparietal left hole. The test drugs were unilaterally injected into the hippocampus of freely moving rats to examine their effect on EEG activity.
The rats were kept for about a week for a cure, and then used for the experiments. After the EEG activity was recorded for dozens of minutes in a normal state, 100 ng to 10 μg of the test drug dissolved in 2 μl of saline was injected into the hippocampus through the injection guide cannula. Only saline was used as a control. Immediately after the administration it began to record the EEG activity.

NCCCC(=O)O [GABA, γ-Aminobutyric acid]
Pain Index (ddY-strain male mice): 1.65 ± 0.13
time after administration at which characteristic EEG spikes appeared [1]: a few minutes
time after administration until which the EEG spikes continued [1]: about 25 min
